{
  "source": "patent US20070049538A1",
  "about": "“METHODS FOR USING CUCURBITACIN COMPOUNDS” (SOUTH DAKOTA STATE UNIVERSITY, priority 2005, published 2007)",
  "key": {"[1]": {"assay": "DPPH* Stable Free Radical Scavenging Assay", "conditions": "at 50 μM", "experimental": "Cucurbitacin antioxidant activity was studied first by the DPPH* Stable Free Radical Scavenging Assay (Cotelle et al., Free radical Biology & Medicine 20(1): 35-43, 1996). Experimental conditions were optimized on the standard compound ascorbic acid. Data indicated 30% activity at 50 μM concentration, and 100% activity at 100 μM for ascorbic acid. While the original assay required 10 minutes incubation time for the reaction to occur, this time was increased up to 30 minutes in case cucurbitacin were reacting slower than other reagents."}, "[2]": {"test_system": "HepG2 cells", "assay": "Cucurbitacins cytotoxicity on HepG2 cells (MTT viability assay)", "type": "cell-based, human"}, "[3]": {"assay": "Chromatographic hydrophobicity index (CHI) by RP-HPLC in buffered acetonitrile", "type": "physicochemical", "design": "key: CHI = φ0 (isocratic hydrophobicity index), = A·tR + B; ACN % scale", "conditions": "for CHIACN1: buffered acetonitrile pH 7.0, Alltima C18 250 mm, Eq. (2) from isocratic φ0; for CHIACN2: buffered acetonitrile pH 7.0, Eq. (3) calibrated against published CHI"}, "[4]": {"conditions": "in vivo; cited from earlier work"}, "[5]": {"target": "hyaluronidase (Bos taurus, UniProt Q2YDK3)", "sequence (Q2YDK3 entry or part of it)": "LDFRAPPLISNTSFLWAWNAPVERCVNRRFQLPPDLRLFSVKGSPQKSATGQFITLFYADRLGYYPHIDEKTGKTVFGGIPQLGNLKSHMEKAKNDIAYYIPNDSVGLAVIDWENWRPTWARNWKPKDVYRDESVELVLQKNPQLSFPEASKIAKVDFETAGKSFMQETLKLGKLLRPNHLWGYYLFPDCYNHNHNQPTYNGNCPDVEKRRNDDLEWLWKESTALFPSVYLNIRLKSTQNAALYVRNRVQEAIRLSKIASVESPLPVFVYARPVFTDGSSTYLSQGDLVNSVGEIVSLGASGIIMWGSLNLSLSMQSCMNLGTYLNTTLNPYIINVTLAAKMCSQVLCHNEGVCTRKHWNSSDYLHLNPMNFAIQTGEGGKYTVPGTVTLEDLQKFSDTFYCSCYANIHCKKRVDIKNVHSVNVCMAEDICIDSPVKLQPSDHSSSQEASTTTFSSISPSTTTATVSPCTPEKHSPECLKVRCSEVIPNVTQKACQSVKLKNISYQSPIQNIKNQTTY", "assay": "Anti-Hyaluronidase Assay", "type": "biochemical", "conditions": "up to 71.68 mM", "description": "Cucurbitacin anti-inflammatory activity was monitored by the Anti-Hyaluronidase Assay (Facino et al., Il Farmaco 48: 1447-1461, 1993 and Linker, A., Hyaluronidase. In: Methods of enzymatic analysis. Vol. 4., Bergmeyer, H. U. (Editor), Verlag Chemie GmbH, Berlin, 256-262, 1984). This assay was validated using the standard compound phenylbutazone."}, "[6]": {"test_system": "HSC-T6 cells", "assay": "Serum-driven HSC-T6 proliferation, experiment 2 (24 h, starved/quiescent cells)", "type": "cell-based, rat", "conditions": "HSC-T6, 24 h, starved (quiescent) cells; read-out: Experiment 2 EC50", "experimental": "To overcome this problem, the amount of incubation time was increased to 24 h, and cucurbitacin activity measured on starved (Exp. 2) or proliferative (Exp. 3) cells (Table 8). Cells turned quiescent when serum was not supplemented for one day (Exp. 2). Activity of a few compounds was monitored on quiescent cells, and their activity compared to the ones measured on proliferating cells (Exp. 3).\nWe established several experimental conditions such as 4 hours of incubation time with cucurbitacin, and 2 day cell incubation with fresh media after challenging with cucurbitacin (Exp. 1). Other experiments involved addition of cucurbitacin for 24 hours over starved cells (Exp. 2) vs. proliferating cells (Exp. 3), and one day incubation of cells with fresh media after challenge. The 4 hour incubation period with cucurbitacin triggered anti-proliferation effect. This effect, however, was hindered by a second cycle of cell proliferation during the two-day cell growth period (see silybin, E and I glucosides, and for I-nPr). […] Because of that, the challenge time was increased to 24 hours (Exp. 2 and 3).\nIn experiment 3, only 40% of the cells divided. The ratio of EC50 values for exp. 2 and exp. 3 varied between 3.6 and 12.7. This may indicate differential cytotoxicity of silybin and cucurbitacin analogs over quiescent and active stellate cells. In other words, compounds show higher anti-proliferative activity on active cells than on quiescent cells."}},
  "note": "“Also recorded” adds a separate entry of the source.",
  "data": [
    {"compound": "CC(=O)OC(C)(C)/C=C/C(=O)[C@](C)(O)[C@H]1[C@H](O)C[C@@]2(C)[C@@H]3CC=C4[C@H](C[C@H](O)C(=O)C4(C)C)[C@]3(C)C(=O)C[C@]12C", "note": "[B, cucurbitacin B]", "values": [
      {"measurement": "DPPH activity", "setting": "[1]", "result": "did not indicate any activity"},
      {"measurement": "IC50", "setting": "[2]; Table 4, 24 h incubation, MTT", "result": "27.7 ± 9", "unit": "µM"},
      {"measurement": "IC50", "setting": "[2]; Table 5", "result": "27.7 ± 9", "unit": "µM"},
      {"measurement": "IC50", "setting": "[2]; Table 7", "result": 27.7, "unit": "µM"},
      {"measurement": "CHIACN1", "setting": "[3]", "result": 70.93},
      {"measurement": "CHIACN2", "setting": "[3]", "result": 75.40},
      {"measurement": "protective and preventive activity", "setting": "[4]", "result": "significantly reducing serum enzymes level, steatosis, inflammation, and experimental cholestasis"},
      {"measurement": "anti-hyaluronidase activity", "setting": "[5]", "result": "no activity; also recorded: did not demonstrate anti-hyaluronidase activity"}
    ]},
    {"compound": "CC(=O)OC(C)(C)/C=C/C(=O)[C@](C)(O)[C@H]1[C@H](O)C[C@@]2(C)[C@@H]3CC=C4[C@@H](C=C(O[C@@H]5O[C@H](CO)[C@@H](O)[C@H](O)[C@H]5O)C(=O)C4(C)C)[C@]3(C)C(=O)C[C@]12C", "note": "[E-Gluc, cucurbitacin E glucoside]", "values": [
      {"measurement": "IC50", "setting": "[2]; Table 4, 24 h incubation, MTT", "result": "227 ± 15.3", "unit": "µM"},
      {"measurement": "IC50", "setting": "[2]; Table 5", "result": "227 ± 15.5", "unit": "µM"},
      {"measurement": "IC50", "setting": "[2]; Table 7", "result": 227, "unit": "µM"},
      {"measurement": "CHIACN1", "setting": "[3]", "result": 53.98},
      {"measurement": "CHIACN2", "setting": "[3]", "result": 49.13},
      {"measurement": "EC50", "setting": "[6]", "result": 20, "unit": "µM"}
    ]},
    {"compound": "Cucurbitacin E-Me ether", "values": [
      {"measurement": "IC50", "setting": "[2]; Table 4, 24 h incubation, MTT", "result": "12 ± 3", "unit": "µM"},
      {"measurement": "IC50", "setting": "[2]; Table 5", "result": "12 ± 3", "unit": "µM"},
      {"measurement": "IC50", "setting": "[2]; Table 7", "result": 12, "unit": "µM"},
      {"measurement": "CHIACN1", "setting": "[3]", "result": 77.84},
      {"measurement": "CHIACN2", "setting": "[3]", "result": 86.09}
    ]},
    {"compound": "cucurbitacin E", "values": [
      {"measurement": "IC50", "setting": "[2]; Table 4, 24 h incubation, MTT", "result": 15.3, "unit": "µM"},
      {"measurement": "IC50", "setting": "[2]; Table 5", "result": "15.3 ± 6.6", "unit": "µM"},
      {"measurement": "IC50", "setting": "[2]; Table 7", "result": 15.3, "unit": "µM"},
      {"measurement": "CHIACN1", "setting": "[3]", "result": 75.92},
      {"measurement": "CHIACN2", "setting": "[3]", "result": 83.13},
      {"measurement": "protective and preventive activity", "setting": "[4]", "result": "significantly reducing serum enzymes level, steatosis, inflammation, and experimental cholestasis"}
    ]}
  ]
}
